The source of these data is paper PMC4418665, “Cyclization of the Urokinase Receptor-Derived Ser-Arg-Ser-Arg-Tyr Peptide Generates a Potent Inhibitor of Trans-Endothelial Migration of Monocytes” (PLoS ONE, 2015).

Peptide text beside a SMILES is read from it.

Experiment [1] has as its system RBL-2H3/ETFR cells. Put plainly: RBL-2H3/ETFR cell proliferation, xCELLigence. The format is cell-based, rat. Particulars: 10 μM peptide, up to 90 hours, medium replaced every 24 hours, quadruplicate.
The subject of experiment [2] is primary macrophages. Put plainly: Primary macrophage migration in DUNN chamber. The note with it: 10 nM peptide added to 10 nM fMLF gradient, 6 hours. It counts as cell-based, human. Here is the method:
The ability of [SRSRY] peptide to affect THP-1 cell migration was analyzed in Boyden chambers using 10 nM fMLF or 10 nM SRSRY as chemoattractants. […] Inhibitory effect of [SRSRY] is dose-dependent, it starts in the high fM range, it seems to level off in the μM range and reaches an overall 50% reduction at 10 pM (Fig 4B). […] The mechanisms by which monocytes move when subjected to a chemoattractant gradient, involve changes in cytoskeletal organization, which provide both protrusive and contractile forces necessary for cell migration. […] A total of 100 cells/sample that translocated to the area corresponding to the ring separating the inner and outer chambers were counted and their cytoskeletal organization examined with a fluorescence-inverted microscope. […] After 6 hours incubation, a total of 100 cells/sample that translocated to the area corresponding to the ring separating the inner and outer chambers were counted. […] Data are expressed as the means ± SD of three independent experiments, performed in duplicate. *Statistical significance against None with p<0.001. […] The extent of cell migration was expressed as a percentage of the net fMLF-dependent cell migration, considered as 100%. Data are expressed as the means ± SD of three independent experiments, performed in duplicate. […]

With `N=C(N)NCCC[C@@H]1NC(=O)[C@H](CO)NC(=O)[C@H](Cc2ccc(O)cc2)NC(=O)[C@H](CCCNC(=N)N)NC(=O)[C@H](CO)NC1=O` [[SRSRY], [Ser-Arg-Ser-Arg-Tyr]] (cyclo(RSRYS)), the RBL-2H3/ETFR cell growth result in experiment [1] is “did not modify cell growth up to 90 hours”. The “effect on fMLF-directed migration of primary macrophages” value in experiment [2] is “reduced migration of primary macrophages to the basal level”.
